Measurements taken from patent US4277468A, “11-Methylene steroids, their preparation and pharmaceutical preparations containing them” (Schering Aktiengesellschaft, priority 1979, dated 1981).

Key:
ovulation = test: Ovulation inhibition test on rats, subcutaneous application, determined by tubal inspection; assay type: in vivo
Description: OVULATION INHIBITION IN RATS AFTER
SUBCUTANEOUS APPLICATION
The ovulation inhibition was determined by tubal inspection.

Androgenic side effects = details: in words, relative to B

Compound | Ovulation inhibition in rats after subcutaneous application (% inhibition) (ovulation; dose 0.03 mg) [%] | Ovulation inhibition in rats after subcutaneous application (% inhibition) (ovulation; dose 0.1 mg) [%] | Androgenic side effects compared with B (Androgenic side effects) | Ovulation inhibition strength relative to ethynyl compound B (ovulation; seen from the table)
C#C[C@]1(O)CC[C@H]2[C@@H]3CCC4=CC(=O)CC[C@@H]4[C@H]3C(=C)C[C@@]21CC [B, 17α-ethynyl-17β-hydroxy-18-methyl-11-methylene-4-estren-3-one, reference compound] | 0 | 100 |  | 
C=C1C[C@@]2(CC)[C@@H](CC[C@@]2(O)C#CCl)[C@@H]2CCC3=CC(=O)CC[C@@H]3[C@@H]12 [A, 17α-chloroethynyl-17β-hydroxy-18-methyl-11-methylene-4-estren-3-one] | 83 | 100 | less androgenic side effects than B | at least three times stronger than ethynyl compound B
